Values of other authors in US20100310475A1, “Biocide Capsules, Preparation Comprising them and Sanitary Pad Comprising the Preparation” (DOLHAY KLINIKA EG[…]., priority 2007, published 2010).

Test system: pathogens
Conditions: water solution

polyvinyl-pyrrolidone iodine [PVP-iodine]
most effective concentration-range: 0.01-1 % by weight
